# Reference: US20120015957A1, “PIPERAZINYL DERIVATIVES USEFUL AS MODULATORS OF THE NEUROPEPTIDE Y2 RECEPTOR” (priority 2007, published 2012)
# Target: T1, NPY Y2 receptor (Homo sapiens, UniProt P49146)
# T1 construct: endogenous in cells; host or cells: KAN-Ts cells (membrane preparation)
# T1 sequence (P49146 1-381): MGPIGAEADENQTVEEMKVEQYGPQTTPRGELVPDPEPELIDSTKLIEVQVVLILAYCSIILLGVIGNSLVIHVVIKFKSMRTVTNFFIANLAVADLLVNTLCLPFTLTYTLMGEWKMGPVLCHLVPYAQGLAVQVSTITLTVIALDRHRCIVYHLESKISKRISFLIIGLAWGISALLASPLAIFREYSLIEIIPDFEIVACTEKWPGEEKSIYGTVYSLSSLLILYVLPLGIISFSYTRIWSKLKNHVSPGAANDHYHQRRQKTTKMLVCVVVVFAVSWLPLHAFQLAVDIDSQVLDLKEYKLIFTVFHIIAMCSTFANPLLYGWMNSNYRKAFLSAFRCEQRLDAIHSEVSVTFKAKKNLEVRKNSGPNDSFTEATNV
# Test: Neuropeptide Y2 radioligand binding assay ([125I]PYY, KAN-Ts cell membranes)
# Conditions: membranes of KAN-Ts cells endogenously expressing Y2 receptors; [125I]PYY 80 pM; 1 h at rt; read-out: IC50 (μM), NPY Y2 binding
# Experimental: KAN-Ts endogenously expressing Y2 receptors were used for the radioligand binding assay. Cells were grown to confluence on 150 cm^2 tissue culture plates, washed with phosphate-buffered saline (PBS), and scraped into 50 mL tubes. After centrifugation, the supernatant was aspirated, and the pellets frozen and stored at −80° C. Thawed pellets were homogenized with a polytron tissue grinder for 15 sec in 20 mM Tris-HCl, 5 mM EDTA. The homogenate was centrifuged at 800×g for 5 min and the collected supernatant was recentrifuged at 25000×g for 25 min. The resulting pellet was resuspended in binding buffer (20 mM HEPES, 120 mM NaCl, 0.22 mM KH2PO4, 1.3 mM CaCl2, 0.8 mM MgSO4). Membranes were incubated with [^125I]PYY (80 pM) in the presence or absence of test compound for 1 h at rt. The reaction was stopped by filtration through GF/C filter plates pre-soaked in 0.3% polyethylenimine and subsequently washed with Tris 50 mM, 5 mM EDTA buffer. Plates were dried for 1 h in a 55° C. oven, scintillation fluid was added and the radioactivity was counted in a Packard TopCount. Specific binding to the NPY receptor subtypes was determined by radioactivity that was bound in the presence of […] NPY. Each binding experiment was repeated three to eight times, each in duplicate. IC50 values (i.e. concentration of unlabelled peptide or antagonist required to compete for 50% of specific binding to the radioligand) were determined using the GraphPad Prism software (GraphPad Software Inc., San Diego Calif.) with a fit to a sigmoidal dose response curve. Apparent K values were as K=IC50/(1+C/KD), where C is concentration of the radioligand.
row,Compound,IC50
1,"CCN(CC)C(=O)C(c1ccccc1)N1CCN(c2ccc(-c3nc(C(=O)OC)co3)cc2F)CC1 (stereo not shown) [Compound 129, 2-{4-[4-(Diethylcarbamoyl-phenyl-methyl)-piperazin-1-yl]-3-fluorophenyl}-oxazole-4-carboxylic acid methyl ester]",1.9 µM
2,"CCOC(=O)c1nc(-c2ccc(N3CCN(C(C(=O)N(CC)CC)c4ccccc4)CC3)c(F)c2)no1 (stereo not shown) [Compound 130, 3-{4-[4-(Diethylcarbamoyl-phenyl-methyl)-piperazin-1-yl]-3-fluoro-phenyl}-[1,2,4]oxadiazole-5-carboxylic acid ethyl ester]",> 10 µM
3,"CCc1cnc(-c2ccc(N3CCN(C(C(=O)N(CC)CC)c4ccccc4)CC3)c(F)c2)o1 (stereo not shown) [Compound 133, N,N-Diethyl-2-{4-[4-(5-ethyl-oxazol-2-yl)-2-fluoro-phenyl]-piperazin-1-yl}-2-phenyl-acetamide]",0.46 µM
4,"CCN(CC)C(=O)C(c1ccccc1)N1CCN(c2ccc(-c3noc(C(N)=O)n3)cc2F)CC1 (stereo not shown) [Compound 144, 3-{4-[4-(Diethylcarbamoyl-phenyl-methyl)-piperazin-1-yl]-3-fluorophenyl}-[1,2,4]oxadiazole-5-carboxylic acid amide]",1.1 µM
5,"CCN(CC)C(=O)C(c1ccccc1)N1CCN(c2ccc(-c3noc(C#N)n3)cc2F)CC1 (stereo not shown) [Compound 147, 2-{4-[4-(5-Cyano-[1,2,4]oxadiazol-3-yl)-2-fluoro-phenyl]-piperazin-1-yl}-N,N-diethyl-2-phenyl-acetamide]",4.1 µM
6,"CCN(CC)C(=O)C(c1ccccc1)N1CCN(c2ccc(-c3noc(/C(N)=N/O)n3)cc2F)CC1 (stereo not shown) [Compound 149, N,N-Diethyl-2-(4-{2-fluoro-4-[5-(N-hydroxycarbamimidoyl)-[1,2,4]oxadiazol-3-yl]-phenyl}-piperazin-1-yl)-2-phenyl-acetamide]",0.99 µM
7,"CCN(CC)C(=O)C(c1ccccc1)N1CCN(c2ccc(-c3nnc(C)o3)cc2F)CC1 (stereo not shown) [Compound 150, N,N-Diethyl-2-{4-[2-fluoro-4-(5-methyl-[1,3,4]oxadiazol-2-yl)-phenyl]-piperazin-1-yl}-2-phenyl-acetamide]",0.42 µM
8,"CCN(CC)C(=O)C(c1ccccc1)N1CCN(c2ccc(-c3noc(C(=O)O)n3)cc2F)CC1 (stereo not shown) [Compound 151, 3-{4-[4-(Diethylcarbamoyl-phenyl-methyl)-piperazin-1-yl]-3-fluorophenyl}-[1,2,4]oxadiazole-5-carboxylic acid]",> 10 µM
9,"CCc1nnc(-c2ccc(N3CCN(C(C(=O)N(CC)CC)c4ccccc4)CC3)c(F)c2)o1 (stereo not shown) [Compound 152, N,N-Diethyl-2-{4-[4-(5-ethyl-[1,3,4]oxadiazol-2-yl)-2-fluoro-phenyl]-piperazin-1-yl}-2-phenyl-acetamide]",0.3 µM
10,"CCN(CC)C(=O)C(c1ccccc1)N1CCN(c2ccc(-c3nnc(C(C)C)o3)cc2F)CC1 (stereo not shown) [Compound 154, N,N-Diethyl-2-{4-[2-fluoro-4-(5-isopropyl-[1,3,4]oxadiazol-2-yl)-phenyl]-piperazin-1-yl}-2-phenyl-acetamide]",0.22 µM
11,"CCN(CC)C(=O)C(c1ccccc1)N1CCN(c2ccc(-c3ncon3)cc2F)CC1 (stereo not shown) [Compound 158, N,N-Diethyl-2-[4-(2-fluoro-4-[1,2,4]oxadiazol-3-yl-phenyl)-piperazin-1-yl]-2-phenyl-acetamide]",1.5 µM
12,"CCN(CC)C(=O)C(c1ccccc1)N1CCN(c2ccc(-c3noc(=O)n3C)cc2F)CC1 (stereo not shown) [Compound 176, N,N-Diethyl-2-{4-[2-fluoro-4-(4-methyl-5-oxo-4,5-dihydro-[1,2,4]oxadiazol-3-yl)-phenyl]-piperazin-1-yl}-2-phenyl-acetamide]",1.9 µM
13,"CCN(CC)C(=O)C(c1ccccc1)N1CCN(c2ccc(-c3noc(SC)n3)cc2F)CC1 (stereo not shown) [Compound 177, N,N-Diethyl-2-{4-[2-fluoro-4-(5-methylsulfanyl-[1,2,4]oxadiazol-3-yl)-phenyl]-piperazin-1-yl}-2-phenyl-acetamide]",0.51 µM
14,"CC(C)c1noc(-c2ccc(N3CCN(C(C(=O)N(C)C)c4ccccc4)CC3)c(F)c2)n1 (stereo not shown) [Compound 180, 2-{4-[2-Fluoro-4-(3-isopropyl-[1,2,4]oxadiazol-5-yl)-phenyl]-piperazin-1-yl}-N,N-dimethyl-2-phenyl-acetamide]",0.15 µM
15,"CCc1noc(-c2ccc(N3CCN(C(C(=O)N(C)C)c4ccccc4)CC3)c(F)c2)n1 (stereo not shown) [Compound 181, 2-{4-[4-(3-Ethyl-[1,2,4]oxadiazol-5-yl)-2-fluoro-phenyl]-piperazin-1-yl}-N,N-dimethyl-2-phenyl-acetamide]",0.53 µM
16,"Cc1noc(-c2ccc(N3CCN(C(C(=O)N(C)C)c4ccccc4)CC3)c(F)c2)n1 (stereo not shown) [Compound 182, 2-{4-[2-Fluoro-4-(3-methyl-[1,2,4]oxadiazol-5-yl)-phenyl]-piperazin-1-yl}-N,N-dimethyl-2-phenyl-acetamide]",0.56 µM
17,"COC(=O)C(c1ccccc1)N1CCN(c2ccc(-c3nc(C)no3)cc2F)CC1 (stereo not shown) [Compound 183, {4-[2-Fluoro-4-(3-methyl-[1,2,4]oxadiazol-5-yl)-phenyl]-piperazin-1-yl}-phenyl-acetic acid methyl ester]",3.1 µM
18,"CCN(C)C(=O)C(c1ccccc1)N1CCN(c2ccc(-c3nc(C(C)C)no3)cc2F)CC1 (stereo not shown) [Compound 184, N-Ethyl-2-{4-[2-fluoro-4-(3-isopropyl-[1,2,4]oxadiazol-5-yl)-phenyl]-piperazin-1-yl}-N-methyl-2-phenyl-acetamide]",2.2 µM
19,"CC(C)c1noc(-c2ccc(N3CCN(C(C(=O)N4CCCC4)c4ccccc4)CC3)c(F)c2)n1 (stereo not shown) [Compound 185, 2-{4-[2-Fluoro-4-(3-isopropyl-[1,2,4]oxadiazol-5-yl)-phenyl]-piperazin-1-yl}-2-phenyl-1-pyrrolidin-1-yl-ethanone]",0.12 µM
20,"CCN(CC)C(=O)C(c1ccccc1)N1CCN(c2ccc(-c3cc(C)nn3-c3ccccc3)cc2F)CC1 (stereo not shown) [Compound 186, N,N-Diethyl-2-{4-[2-fluoro-4-(5-methyl-2-phenyl-2H-pyrazol-3-yl)-phenyl]-piperazin-1-yl}-2-phenyl-acetamide]",0.11 µM
21,"CCN(CC)C(=O)C(c1ccccc1)N1CCN(c2ccc(-c3cccn3C(=O)OC(C)(C)C)cc2F)CC1 (stereo not shown) [Compound 187, 2-{4-[4-(Diethylcarbamoyl-phenyl-methyl)-piperazin-1-yl]-3-fluoro-phenyl}-pyrrole-1-carboxylic acid tert-butyl ester]",5 µM
22,"CCN(CC)C(=O)C(c1ccccc1)N1CCN(c2ccc(-c3ccc[nH]3)cc2F)CC1 (stereo not shown) [Compound 188, N,N-Diethyl-2-{4-[2-fluoro-4-(1H-pyrrol-2-yl)-phenyl]-piperazin-1-yl}-2-phenyl-acetamide]",0.63 µM
23,"Cc1noc(-c2ccc(N3CCN(C(C(=O)N4CCC(F)(F)CC4)c4ccccc4)CC3)c(F)c2)n1 (stereo not shown) [Compound 189, 1-(4,4-Difluoro-piperidin-1-yl)-2-{4-[2-fluoro-4-(3-methyl-[1,2,4]oxadiazol-5-yl)-phenyl]-piperazin-1-yl}-2-phenyl-ethanone]",0.48 µM
24,"CCNC(=O)C(c1ccccc1)N1CCN(c2ccc(-c3nc(C)no3)cc2F)CC1 (stereo not shown) [Compound 190, N-Ethyl-2-{4-[2-fluoro-4-(3-methyl-[1,2,4]oxadiazol-5-yl)-phenyl]-piperazin-1-yl}-2-phenyl-acetamide]",0.33 µM
25,"CCN(CC)C(=O)C(c1ccccc1)N1CCN(c2ccc(C3=NN(C(C)C)C(=O)C3)cc2F)CC1 (stereo not shown) [Compound 191, N,N-Diethyl-2-{4-[2-fluoro-4-(1-isopropyl-5-oxo-4,5-dihydro-1H-pyrazol-3-yl)-phenyl]-piperazin-1-yl}-2-phenyl-acetamide]",0.34 µM
26,"CCOC(=O)C(c1ccccc1)N1CCN(c2ccc(-c3nc(C)no3)cc2F)CC1 (stereo not shown) [Compound 192, {4-[2-Fluoro-4-(3-methyl-[1,2,4]oxadiazol-5-yl)-phenyl]-piperazin-1-yl}-phenyl-acetic acid ethyl ester]",0.38 µM
27,"CCN(CC)C(=O)C(c1ccccc1)N1CCN(c2ccc(-c3ccccc3)cc2F)CC1 (stereo not shown) [Compound 193, N,N-Diethyl-2-[4-(3-fluoro-biphenyl-4-yl)-piperazin-1-yl]-2-phenyl-acetamide]",0.42 µM
28,"CCN(CC)C(=O)C(c1ccccc1)N1CCN(c2ccc(-c3cccc(Cl)c3)cc2F)CC1 (stereo not shown) [Compound 194, 2-[4-(3′-Chloro-3-fluoro-biphenyl-4-yl)-piperazin-1-yl]-N,N-diethyl-2-phenyl-acetamide]",0.88 µM
